Assay results published in US11873517B2, “Candida tropicalis strain having improved tolerance to the cytotoxicity of substrates, and method for producing dicarboxylic acid using same” (priority 2018, dated 2024).

Test system: Candida tropicalis MYA_3404 strain
Assay: toxicity test of substrates and product: growth of the strain in YNB medium
Settings: 36 hours; for growth of the strain in the medium to which the substance was added, compared to the control: added at 5 g/L to YNB medium, 30° C., 200 rpm, FIG. 1

SMILES	growth of the strain in the medium to which the substance was added, compared to the control	cytotoxicity compared to the sebacic acid (5 g/L in YNB medium)
CCCCCCCCCC(=O)O [DA, decanoic acid]	did not grow	–
CCCCCCCCCC(=O)OC [DAME, decanoic acid methyl ester]	did not grow	stronger cytotoxicity
O=C(O)CCCCCCCCC(=O)O [sebacic acid]	the growth rate and the total cell mass of the strain decreased	–
